Test results reported in US20230381271A1, “PROTOCOL TO MINIMIZE CALCINEURIN INHIBITOR NEPHROTOXICITY” (Aurinia Pharmaceuticals Inc., priority 0001, published 2023).
Entries after “also recorded” stand apart in the source; their conditions may differ.

Columns and labels:
LN [1] = test: 48 week study of LN treatment: voclosporin plus MMF and oral corticosteroids, with pharmacodynamic (eGFR-guided) dosing; type: in vivo, human; conditions: for Patients with CR at 24 weeks / Patients with CR at 48 weeks / Patients with PR at 24 weeks / Patients with PR at 48 weeks: patients with no dose reduction
Experimental: The study was conducted over a period of 48 weeks and safety was evaluated at 24 weeks.
Subjects were assessed after 24 weeks and 48 weeks as well as a subsequent evaluation at 50 weeks.
PR is a composite end-point that includes safety and efficacy: UPCR reduction of 50% from baseline and no use of rescue medication.
To determine the efficacy of the pharmacodynamics protocol wherein dosage is reduced or stopped according to the presence or absence of indicators of the decrease in eGFR experienced as a side effect, these three groups of patients were assessed after 24 weeks and 48 weeks of treatment in consideration of whether treatment was altered according to the invention protocol.
PR is defined as UPCR reduction of 50% from baseline and no use of rescue medication.

LN [2] = test: Low dosage protocol: clinical studies similar to Example 1, dosage reduced to 15.8 or 7.9 mg BID; type: in vivo, human
[3] = test system: subjects with active lupus nephritis; test: Double-blind randomized controlled trial in active lupus nephritis: complete renal response; type: in vivo, human; conditions: at one year
[4] = test system: subjects with lupus nephritis; test: 24-hour urinary electrolyte excretion concentrations in the lupus nephritis trial; type: in vivo, human; conditions: for Potassium urinary excretion concentration, change from baseline, mean ± SEM / Sodium urinary excretion concentration, change from baseline, mean ± SEM: baseline to one year, 24-hour urine
Excerpt: Twenty-four-hour urine samples from 60 patients in each treatment arm were selected for urinary analysis of electrolytes. […] The mean change from baseline to one year in magnesium, potassium and sodium were presented as 24-hour urinary excretion concentrations.

[5] = test system: subjects with biopsy-proven active lupus nephritis; test: Pooled Phase 2 and Phase 3 lupus nephritis studies: complete renal response rate; type: in vivo, human; conditions: pooled data
Excerpt: (§1) All patients were concurrently administered mycophenolate mofetil (MMF) (target 1 g BID) and rapidly-tapered, low-dose steroids.

subjects with LN = test: Pooled Phase 2 and Phase 3 lupus nephritis studies: fasting lipid profile; type: in vivo, human
Experimental: as §1
Fasting total cholesterol, low-density lipoprotein cholesterol (LDL), high-density lipoprotein cholesterol (HDL), and triglycerides were measured at baseline and at a one year follow-up in a central, CLIA-certified laboratory.

[6] = test system: subjects with lupus nephritis; test: Long-term continuation study: eGFR, UPCR, oral steroid dose; type: in vivo, human; conditions: for Corrected eGFR, mean / UPCR, mean: N = 116
[7] = test system: subjects with lupus nephritis; test: Long-term continuation study: adverse events; type: in vivo, human
[8] = test system: patients with lupus nephritis; conditions: patients treated with voclosporin; cited from earlier work
mouse kidney = test: MALDI-MSI localization in mouse kidney after IV administration; conditions: tail vein injection of parent drug, compared between voclosporin and cyclosporine A species
Experimental: Kidneys were cryosectioned and covered with a matrix for MALDI-MSI analysis. The sample was measured in a raster process in the mass spectrometer, resulting in a spatially resolved mass spectra. The detected molecules were visualized as a color intensity map (m/z 0%-100%). Histological staining of the sample was then performed. Histological staining and the MALDI-MSI measurements of the same sample were co-registered.

[9] = High Dose 39.5 mg BID, 24 weeks, n=88
[10] = High Dose 39.5 mg BID, 48 weeks, n=88
[11] = High Dose 39.5 mg BID, patients with dose reductions (pharmacodynamically dosed)
[12] = Low Dose 23.7 mg BID, 48 weeks, n=89
[13] = Low Dose 23.7 mg BID, patients with dose reductions (pharmacodynamically dosed)
[14] = low dosage 23.7 mg BID + MMF + corticosteroids, whole group
[15] = any subgroup, either treatment arm, one year
[16] = change from baseline to one year

C=C/C=C/C[C@@H](C)[C@@H](O)[C@H]1C(=O)N[C@@H](CC)C(=O)N(C)CC(=O)N(C)[C@@H](CC(C)C)C(=O)N[C@@H](C(C)C)C(=O)N(C)[C@@H](CC(C)C)C(=O)N[C@@H](C)C(=O)N[C@H](C)C(=O)N(C)[C@@H](CC(C)C)C(=O)N(C)[C@@H](CC(C)C)C(=O)N(C)[C@@H](C(C)C)C(=O)N1C [voclosporin]
Patients with Dose Reduction (LN [1]; [9]): 47 (53.4) n(%) | Patients with no Dose Reduction (LN [1]; [9]): 41 (46.6) n(%) | Patients with Dose Reduction (LN [1]; [10]): 53 (60.2) n(%) | Patients with no Dose Reduction (LN [1]; [10]): 35 (39.8) n(%) | Patients with CR at 24 weeks, percent (LN [1]; [11]): (27.7) % | Patients with CR at 48 weeks, percent (LN [1]; [11]): (45.3) % | Patients with PR at 24 weeks, number (LN [1]; [11]): 34 n | Patients with PR at 24 weeks, percent (LN [1]; [11]): (72.3) % | Patients with PR at 48 weeks, percent (LN [1]; [11]): (77.4) % | Patients with CR at 24 weeks (LN [1]; High Dose 39.5 mg BID): 11 (26.8) n(%) | Patients with CR at 48 weeks (LN [1]; High Dose 39.5 mg BID): 11 (31.4) n(%) | Patients with PR at 24 weeks (LN [1]; High Dose 39.5 mg BID): 24 (58.5) n(%) | Patients with PR at 48 weeks (LN [1]; High Dose 39.5 mg BID): 22 (62.9) n(%) | Patients with no Dose Reduction (LN [1]; Low Dose 23.7 mg BID, 24 weeks, n=89): 50 (56.2) n(%) | Patients with Dose Reduction (LN [1]; [12]): 46 (51.7) n(%) | Patients with no Dose Reduction (LN [1]; [12]): 43 (48.3) n(%) | Patients with CR at 24 weeks, percent (LN [1]; [13]): (35.9) % | Patients with CR at 48 weeks, percent (LN [1]; [13]): (52.2) % | Patients with PR at 24 weeks, percent (LN [1]; [13]): (71.8) % | Patients with PR at 48 weeks, number (LN [1]; [13]): 35 n | Patients with PR at 48 weeks, percent (LN [1]; [13]): (76.1) % | Patients with CR at 24 weeks (LN [1]; Low Dose 23.7 mg BID): 15 (30.0) n(%) | Patients with CR at 48 weeks (LN [1]; Low Dose 23.7 mg BID): 20 (46.5) n(%) | Patients with PR at 24 weeks (LN [1]; Low Dose 23.7 mg BID): 34 (68.0) n(%) | Patients with PR at 48 weeks (LN [1]; Low Dose 23.7 mg BID): 26 (60.5) n(%) | patients showing CR at 24 weeks (LN [1]; [14]): 32.6% | patients showing PR at 24 weeks (LN [1]; [14]): 70% | complete or partial remission at reduced dosage (LN [2]; dosage lowered to 7.9 mg BID quite early in the treatment): Substantial numbers of subjects showed complete or partial remission | remission at reduced dosage (LN [2]; dosage reduced almost immediately to 15.8 mg BID): a substantial portion of subjects showed substantial remission | complete renal response rate ([3]; 23.7 mg twice daily + MMF + low-dose steroids): 40.8% | complete renal response, OR vs MMF and low-dose steroids only ([3]; p<0.0001): 2.65 | Potassium urinary excretion concentration, change from baseline, mean ± SEM ([4]; Non-responders, n = 32): -2.48 ± 4.806 mmol/L | Sodium urinary excretion concentration, change from baseline, mean ± SEM ([4]; Non-responders, n = 32): -23.0 ± 12.69 mmol/L | Potassium urinary excretion concentration, change from baseline, mean ± SEM ([4]; Responders, n = 28): -6.38 ± 24.0 mmol/L | Sodium urinary excretion concentration, change from baseline, mean ± SEM ([4]; Responders, n = 28): -27.6 ± 109 mmol/L | Decrease from baseline in urinary sodium excretion concentration ([4]; all subgroups except responders in the control arm, one year): < 30.5 mmol/L | Mean changes from baseline in urinary magnesium excretion concentration (magnitude) [4, 15]: < 13.4 mg/dL | Mean changes from baseline in urinary potassium excretion concentration (magnitude) [4, 15]: < 6.4 mmol/L | changes from baseline in urinary electrolyte excretion concentrations of magnesium, potassium, and sodium ([4]; at the studied dose, regardless of response to treatment): not clinically meaningful | Potassium urinary excretion concentration, change from baseline, mean ± SEM ([4]; eGFR decrease cohort, n = 28): -4.58 ± 4.648 mmol/L | Sodium urinary excretion concentration, change from baseline, mean ± SEM ([4]; eGFR decrease cohort, n = 28): -30.5 ± 11.92 mmol/L | complete renal response rate (CRR) ([5]; one year of treatment, added to MMF and low-dose steroids): 43.7% | complete renal response, OR vs control ([5]; one year, P<0.0001): 2.76 | HDL cholesterol, Change from Baseline to One Year, mean (subjects with LN; 23.7 mg BID arm): -5.9 mg/dL | LDL cholesterol, Change from Baseline to One Year, mean (subjects with LN; 23.7 mg BID arm): -57.4 mg/dL | Total cholesterol, Change from Baseline to One Year, mean (subjects with LN; 23.7 mg BID arm): -82.6 mg/dL | Triglycerides, Change from Baseline to One Year, mean (subjects with LN; 23.7 mg BID arm): -74.1 mg/dL | LDL cholesterol, observed, mean (subjects with LN; Baseline, 23.7 mg BID arm, normal range 50 to 130): 174.0 mg/dL | Triglycerides, observed, mean (subjects with LN; Baseline, 23.7 mg BID arm, normal range 50 to 150): 239.6 mg/dL | Total cholesterol, observed, mean (subjects with LN; Baseline, 23.7 mg BID arm, normal range 100 to 200): 288.8 mg/dL | LDL cholesterol, observed, mean (subjects with LN; One Year, 23.7 mg BID arm): 114.3 mg/dL | Total cholesterol, observed, mean (subjects with LN; One Year, 23.7 mg BID arm): 196.6 mg/dL | Triglycerides, observed, mean (subjects with LN; One Year, 23.7 mg BID arm): 148.4 mg/dL | percentage of subjects with normal triglycerides (subjects with LN; at baseline): 32.3% | percentage of subjects with normal triglycerides (subjects with LN; at one year): 56.1% | increase in percentage of patients with total cholesterol in the normal range (subjects with LN; baseline to one year): about 42% | increase in percentage with normal LDL (subjects with LN; baseline to one year): about 42% | HDL cholesterol, LS Mean Difference Voclosporin vs Control (subjects with LN; [16]): -0.6 mg/dL | LDL cholesterol, LS Mean Difference Voclosporin vs Control (subjects with LN; [16]): -10.3 mg/dL | Total cholesterol, LS Mean Difference Voclosporin vs Control (subjects with LN; [16]): -15.1 mg/dL | Triglycerides, LS Mean Difference Voclosporin vs Control (subjects with LN; [16]): -15.9 mg/dL | Mean HDL levels over the study (subjects with LN; within the normal range at baseline, both arms): remained stable throughout the study | Corrected eGFR, mean ([6]; Month 12, 23.7 mg twice daily + MMF + low-dose steroids): 80.7 mL/min/1.73 m^2 | UPCR, mean ([6]; Month 12): 0.86 mg/mg | mean UPCR versus control ([6]; all time points during the three years): lower | increase from baseline eGFR, compared to the active control group ([6]; at 36 months): +2.7 mL/min | mean estimated glomerular filtration rate (eGFR) over time ([6]; over 36 months, 116 subjects): stable over 36 months | Corrected eGFR, mean ([6]; pre-treatment Baseline): 79.0 mL/min/1.73 m^2 | UPCR, mean ([6]; pre-treatment Baseline): 3.941 mg/mg | withdrawals ([7]; continuation study): 12.9% | deaths in the treated group ([7]; continuation study, four deaths in the active control group): no deaths | Adverse Event Leading to Voclosporin/Placebo Discontinuation ([7]; n = 116): 10.3% | Disease-Related Adverse Event ([7]; n = 116): 51.7% | Treatment-Related Adverse Event ([7]; n = 116): 27.6% | Treatment-Related Serious Adverse Event ([7]; n = 116): 0.9% | Any Adverse Event ([7]; n = 116, 23.7 mg twice daily + MMF + low-dose steroids): 88.8% | tolerability ([7]; up to three years of treatment): well tolerated with no unexpected safety signals observed | Mean serum electrolyte concentrations [8]: within normal ranges | distribution, accumulation and intensity in the kidney (MALDI-MSI) (mouse kidney): relatively weak throughout the kidney, particularly in the cortex; also recorded: do not accumulate at high concentrations in the kidney
